Patent US20060270615A1, “Compositions suitable for the treatment of damage caused by ischemia/reper-fusion or oxidative stress” (N.V. NUTRICIA, priority 2000, published 2006)
Several values for one entry are separate records, joined by “and”; a condition that tells them apart may be missing. Equal entries are not always repeated.

Tests used:
[1] = molecular target: T1, xanthine oxidase (grade I from buttermilk) (Bos taurus, UniProt P80457); assay: Xanthine oxidase inhibition (xanthine oxidase assay), uric acid production; type: biochemical; details: xanthine substrate, pH 7.8, absorbance at 295 nm; for IC50: read-out: IC-50 xanthine oxidase inhibition (converted)
T1 construct: XOD (xanthine oxidase) (grade I from buttermilk); from tissue; host or cells: buttermilk
T1 sequence (P80457 whole entry): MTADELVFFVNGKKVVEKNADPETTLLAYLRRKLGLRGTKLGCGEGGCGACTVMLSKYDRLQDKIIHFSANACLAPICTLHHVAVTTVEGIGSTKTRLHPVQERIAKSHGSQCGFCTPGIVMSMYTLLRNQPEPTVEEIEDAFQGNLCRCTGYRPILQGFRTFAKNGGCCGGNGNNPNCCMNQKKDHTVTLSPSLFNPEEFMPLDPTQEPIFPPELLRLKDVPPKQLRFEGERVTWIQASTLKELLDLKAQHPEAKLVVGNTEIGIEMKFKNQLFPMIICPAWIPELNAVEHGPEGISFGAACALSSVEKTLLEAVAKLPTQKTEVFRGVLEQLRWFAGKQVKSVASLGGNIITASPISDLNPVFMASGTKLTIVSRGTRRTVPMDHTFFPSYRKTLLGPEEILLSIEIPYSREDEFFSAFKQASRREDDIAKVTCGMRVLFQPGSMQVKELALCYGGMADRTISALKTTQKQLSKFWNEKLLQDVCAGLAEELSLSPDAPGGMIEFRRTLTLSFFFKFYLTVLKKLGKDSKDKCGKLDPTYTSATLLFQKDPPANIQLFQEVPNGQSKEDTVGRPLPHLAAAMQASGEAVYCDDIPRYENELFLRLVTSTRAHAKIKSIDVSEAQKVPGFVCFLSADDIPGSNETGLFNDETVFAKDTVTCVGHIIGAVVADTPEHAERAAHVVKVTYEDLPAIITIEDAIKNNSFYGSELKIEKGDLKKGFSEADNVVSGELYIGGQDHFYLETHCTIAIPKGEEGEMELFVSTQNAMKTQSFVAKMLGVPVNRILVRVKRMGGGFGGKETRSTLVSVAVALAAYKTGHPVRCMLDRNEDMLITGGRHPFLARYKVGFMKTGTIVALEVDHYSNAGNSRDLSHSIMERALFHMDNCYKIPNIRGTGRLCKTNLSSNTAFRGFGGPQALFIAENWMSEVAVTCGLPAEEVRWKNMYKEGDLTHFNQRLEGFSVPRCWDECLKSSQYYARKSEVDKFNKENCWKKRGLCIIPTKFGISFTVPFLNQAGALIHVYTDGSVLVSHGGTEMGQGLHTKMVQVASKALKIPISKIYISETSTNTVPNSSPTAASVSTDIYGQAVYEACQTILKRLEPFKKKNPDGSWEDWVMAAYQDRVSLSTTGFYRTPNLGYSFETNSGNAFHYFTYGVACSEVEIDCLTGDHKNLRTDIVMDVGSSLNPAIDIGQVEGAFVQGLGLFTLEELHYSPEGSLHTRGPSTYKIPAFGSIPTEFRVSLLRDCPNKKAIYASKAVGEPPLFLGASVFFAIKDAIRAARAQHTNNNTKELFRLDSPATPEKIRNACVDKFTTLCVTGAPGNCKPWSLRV
Procedure: Xanthine Oxidase Inhibition (Xanthine Oxidase Assay)
The activity of xanthine oxidase is determined by means of the uric acid production.
This solution is maintained on ice during the entire experiment to prevent changes in the activity of the enzyme.
724 μl phophate buffer pH=7.8
10 μl DMSO or the substance to be tested dissolved in DMSO
The reaction is started by addition of 66 μl of the enzyme solution to the above described assay mixture. […] If the reaction is linear, the result is expressed as Δ absorbance/min. […] The maximum activity is the activity of the enzyme, when no substance is dissolved in DMSO.

[2] = Peroxyl radical scavenging (β-phycoerythrin fluorescence assay, ORACROO); type: biochemical; parameters: key to TE (Trolox equivalent) (based on mole weight): ratio of net curve area to Trolox's, molar basis; details: relative to Trolox, area under fluorescence curve
Procedure: In the β-phycoerythrin fluorescence based assay the reduction of β-phycoerythrin decomposition by radicals resulting from the thermal decomposition of V50 is measured. […]
Peroxyl Radical Scavenging (β-phycoerythrin fluorescence assay)
The principle underlying the present method is that B-phycoerythrin is decomposed by radicals that are the result of the thermolitic decomposition of V50 at 20° C. When a product scavenges these radicals, the decrease in fluorescence in time will occur less quickly. All measurements should be carried out at least in threefold.
AAPH (2,2′-azobis(2-aminopropane)dihydrochloride) (e.g. from Wako Chemicals)=V50; MW=271.19 g/mol; 16 mM in the assay
β-PE (e.g. from Sigma) MW=240,000 g /mol; 16.7 nM in the assay
Trolox (e.g. from Aldrich) MW =250.29 g/mol; in the assay test in the range of 1-10 μM.
Each tray should contain trolox as a reference and as a standard (2 μM or 0.5 mg/l). As a negative control a sample is taken containing only 10 μl ethanol, 50 μl 50 mM PBS, pH=7.4 and 50 μl 66.8 nM β-PE.
The reaction is started by adding 100 μl 32nM V-50. The time between pipetting and mixing of this last step in a well and the measurement of this well, should be constant. Further, the time between the last pipetting step in a well and the first measurement of the well should be less than 2 minutes.
V-50 should be stored in the dark at 4° C. until used. The reaction kinetics of the wells are monitored in a continuous monitoring process. The excitation wavelength is 540 nm, while the emission wavelength is 565 nm. The reaction is monitored until the signal of the sample differs no longer from the background signal (±10%). The area underneath the curve of the negative reference is subtracted from the area underneath the substance to be measured. This difference in area is then related to a difference in area in relation to a negative reference resulting from trolox.

| SMILES | IC50 [1] | TE (Trolox equivalent) (based on mass) [2] | TE (Trolox equivalent) (based on mole weight) [2] | IC-50 xanthine oxidase inhibition [1] |
| --- | --- | --- | --- | --- |
| O=c1cc(-c2ccccc2)oc2cc(O)cc(O)c12 [Chrysin] | 2540 nM and 2500 nM | – | – | – |
| O=c1cc(-c2ccc(O)c(O)c2)oc2cc(O)cc(O)c12 [Luteolin] | 751 nM and 750 nM | 1.22 | 1.40 | – |
| O=c1c(O)c(-c2ccc(O)c(O)c2)oc2cc(O)cc(O)c12 [quercetin] | – | 1.32 | 1.78 | – |
| COc1cc(/C=C/C(=O)CC(=O)/C=C/c2ccc(O)c(OC)c2)ccc1O [Curcumin] | – | – | – | not detectable |
| O=c1cc(-c2ccc(O)cc2)oc2cc(O)cc(O)c12 [Apigenin] | 999 nM and 1000 nM | 1.56 | 1.69 | – |
| O=C(O[C@@H]1Cc2c(O)cc(O)cc2O[C@@H]1c1cc(O)c(O)c(O)c1)c1cc(O)c(O)c(O)c1 [Epigalo-catechin-galate (ECCG), Epigalo-catechin-galate] | – | 0.54 | 0.99 | not detectable |
| O=C1c2ccc(O)cc2O[C@H](c2ccc(O)c(O)c2)[C@H]1O [fustin] | – | 1.07 | 1.24 | – |
| Oc1cc(O)c2c(c1)O[C@H](c1ccc(O)c(O)c1)[C@H](O)C2 [Epicatechin] | – | – | – | not detectable |
| O=c1c(O)c(-c2cc(O)c(O)c(O)c2)oc2cc(O)cc(O)c12 [Myricetin] | 1510 nM and 1500 nM | 0.89 | 1.13 | – |
